In patent US12454516B2, “Nitric oxide releasing prodrugs of MDA and MDMA” (priority 2021, dated 2025):

Key:
[1] = Stability of Prodrug 2-1 in plasma (mouse); assay type: in vitro ADME
[2] = Stability of Prodrug 2-1 in plasma (human); assay type: in vitro ADME
[3] = Stability of Prodrug 2-1 in plasma (rat); assay type: in vitro ADME
[4] = Stability in SGF without pepsin; assay type: in vitro ADME
[5] = Stability in SGF with pepsin; assay type: in vitro ADME
Solubility in FaSSIF = assay type: physicochemical; conditions: read-out: Solublity (uM) FaSSIF
physchem = conditions: buffer, pH 6.5

Structure (SMILES)	half-life [1] [h]	Remaining Percentage (%) 0 min [1] [%]	Remaining Percentage (%) 15 min [1] [%]	Remaining Percentage (%) 30 min [1] [%]	Remaining Percentage (%) 60 min [1] [%]	Remaining Percentage (%) 120 min [1] [%]	half-life [2] [h]	Remaining Percentage (%) 0 min [2] [%]	Remaining Percentage (%) 15 min [2] [%]	Remaining Percentage (%) 30 min [2] [%]	Remaining Percentage (%) 60 min [2] [%]	Remaining Percentage (%) 120 min [2] [%]	Remaining Percentage (%) 0 min (Stability in PBS pH 6.5) [%]	Remaining Percentage (%) 30 min (Stability in PBS pH 6.5) [%]	Remaining Percentage (%) 60 min (Stability in PBS pH 6.5) [%]	Remaining Percentage (%) 120 min (Stability in PBS pH 6.5) [%]	Remaining Percentage (%) 240 min (Stability in PBS pH 6.5) [%]	half-life [3] [h]	Remaining Percentage (%) 0 min [3] [%]	Remaining Percentage (%) 15 min [3] [%]	further results
CC(C)[N+](C)(CCOC(=O)C1c2ccccc2Oc2ccccc21)C(C)C [Propantheline, reference compound]	0.449	100.00	72.20	49.21	22.77	4.69	0.246	100.00	72.22	39.13	6.46	0.12	–	–	–	–	–	–	–	–	–
O=C(O)CCCc1ccc(N(CCCl)CCCl)cc1 [Chlorambucil, reference compound]	–	–	–	–	–	–	–	–	–	–	–	–	100	62.6	39.9	15.07	2.05	–	–	–	–
CC[C@H](C)C(=O)O[C@H]1C[C@@H](C)C=C2C=C[C@H](C)[C@H](CC[C@@H]3C[C@@H](O)CC(=O)O3)[C@H]21 [Lovastatin, reference compound]	–	–	–	–	–	–	–	–	–	–	–	–	–	–	–	–	–	0.0747	100.00	9.82	Remaining Percentage (%) 30 min [3]: 0.00%; Remaining Percentage (%) 60 min [3]: 0.00%; Remaining Percentage (%) 120 min [3]: 0.00%
CC[C@H]1OC(=O)[C@H](C)[C@@H](O[C@H]2C[C@@](C)(OC)[C@@H](O)[C@H](C)O2)[C@H](C)[C@@H](O[C@@H]2O[C@H](C)C[C@H](N(C)C)[C@H]2O)[C@](C)(O)C[C@@H](C)C(=O)[C@H](C)[C@@H](O)[C@]1(C)O [Erythromycin, reference compound]	–	–	–	–	–	–	–	–	–	–	–	–	–	–	–	–	–	–	–	–	Remaining Percentage (%) 0 min [4]: 100%; Remaining Percentage (%) 30 min [4]: 60.53%; Remaining Percentage (%) 60 min [4]: 34.86%; Remaining Percentage (%) 120 min [4]: 11.45%; Remaining Percentage (%) 240 min [4]: 1.64%; Remaining Percentage (%) 0 min [5]: 100%; Remaining Percentage (%) 30 min [5]: 59.9%; Remaining Percentage (%) 60 min [5]: 39.02%; Remaining Percentage (%) 120 min [5]: 12.40%; Remaining Percentage (%) 240 min [5]: 1.57%
C[C@H](Cc1ccc2c(c1)OCO2)NC(=O)CCCO[N+](=O)[O-] [Compound 2-1, (R)-4-((1-(benzo[d][1,3]dioxol-5-yl)propan-2-yl)amino)-4-oxobutyl nitrate]	26.2	100.00	95.13	98.19	95.02	93.59	15.1	100.00	100.94	102.03	90.66	93.79	100	104.05	105.81	98.20	83.83	3.84	100.00	96.93	Remaining Percentage (%) 30 min [3]: 93.53%; Remaining Percentage (%) 60 min [3]: 81.00%; Remaining Percentage (%) 120 min [3]: 70.84%; solubility (Solubility in FaSSIF): 284 µM; half-life [4]: 14.3 h; Remaining Percentage (%) 0 min [4]: 100%; Remaining Percentage (%) 30 min [4]: 95.42%; Remaining Percentage (%) 60 min [4]: 99.51%; Remaining Percentage (%) 120 min [4]: 93.54%; Remaining Percentage (%) 240 min [4]: 81.87%; half-life (physchem): 13.4 h; half-life [5]: 13.5 h; Remaining Percentage (%) 0 min [5]: 100%; Remaining Percentage (%) 30 min [5]: 98.88%; Remaining Percentage (%) 60 min [5]: 98.96%; Remaining Percentage (%) 120 min [5]: 89.53%; Remaining Percentage (%) 240 min [5]: 82.75%
